# How the values were obtained:
# Assay in all cases: In vitro antibacterial activity (MIC), agar dilution method according to NCCLS
# Type in all cases: cell-based
# S. pneumoniae Type III = conditions: Muller-Hinton agar medium containing 5% defibrinated equine blood
# E. faecalis IID682 = tested on: E. faecalis IID682; design: unit not given here; conditions: Muller-Hinton agar medium containing 5% defibrinated equine blood
# [1] = tested on: S. aureus MS16401 (quinolone-resistant S. aureus); conditions: Muller-Hinton agar medium
# Experimental: (§1) The in vitro antibacterial activity (as measured by the minimum inhibitory concentration (MIC)) was determined for each of the compounds of the present invention by the agar dilution method according to NCCLS (National Committee for Clinical Laboratory Standard (1997), Methods for Dilution Antibacterial Susceptibility Tests for Bacteria that grow Aerobically-Forth Edition: Approved Standard m7-A4. NCCLS, Villanova, Pa.), which involved the use of Muller-Hinton agar medium.
# S. aureus Smith = conditions: Muller-Hinton agar medium
# Experimental: as §1
# [2] = tested on: S. aureus MR5867 (methicillin-resistant S. aureus); conditions: Muller-Hinton agar medium
# Experimental: as §1
Structure (SMILES),MIC (S. pneumoniae Type III),MIC (E. faecalis IID682),MIC [1],MIC (S. aureus Smith),MIC [2]
"C[C@@H]1CN(c2c(F)cc3c(=O)c(C(=O)O)cn4c3c2OC[C@@H]4C)C[C@H]1CNC1CC1 (relative stereo) [Example 10, (3S)-10-(trans-3-cyclopropylaminomethyl-4-methyl-1-pyrrolidinyl)-9-fluoro-2,3-dihydro-3-methyl-7-oxo-7H-pyrido[1,2,3-d,e][1,4]benzoxazine-6-carboxylic acid]",0.031,0.125,63 µg/mL,0.016,0.016
"C[C@H]1CN(c2c(F)cc3c(=O)c(C(=O)O)cn4c3c2OC[C@@H]4C)C[C@H]1CNC1CC1 (relative stereo) [Example 13, (3S)-10-(cis-3-cyclopropylaminomethyl-4-methyl-1-pyrrolidinyl)-9-fluoro-2,3-dihydro-3-methyl-7-oxo-7H-pyrido[1,2,3-d,e][1,4]benzoxazine-6-carboxylic acid]",0.031,0.125,31 µg/mL,0.008,0.008
"C[C@H]1COc2c(N3C[C@@H](CNC4CC4)[C@H](C(F)(F)F)C3)c(F)cc3c(=O)c(C(=O)O)cn1c23 (relative stereo) [Example 19, (3S)-10-(trans-3-cyclopropylaminomethyl-4-trifluoromethyl-1-pyrrolidinyl)-9-fluoro-2,3-dihydro-3-methyl-7-oxo-7H-pyrido[1,2,3-d,e][1,4]benzoxazine-6-carboxylic acid]",0.125,0.25,125 µg/mL,0.016,0.016
"O=C(O)c1cn2c3c(c(N4CC[C@@H](CNC5CC5)C4)c(F)cc3c1=O)OC[C@@H]2CF [Example 1, (3R)-10-[(3S)-3-cyclopropylaminomethyl-1-pyrrolidinyl]-9-fluoro-3-fluoromethyl-2,3-dihydro-7-oxo-7H-pyrido[1,2,3-d,e][1,4]benzoxazine-6-carboxylic acid]",0.032,0.063,125 µg/mL,0.016,0.016
"COC[C@H]1COc2c(N3CC[C@@H](CNC4CC4)C3)c(F)cc3c(=O)c(C(=O)O)cn1c23 [Example 4, (3S)-10-[(3S)-3-cyclopropylaminomethyl-1-pyrrolidinyl]-9-fluoro-2,3-dihydro-3-methoxymethyl-1-oxo-7H-pyrido[1,2,3-d,e][1,4]benzoxazine-6-carboxylic acid]",0.125,0.25,500 µg/mL,0.031,0.031
"CC(=O)OC[C@@H]1COc2c(N3CC[C@@H](CNC4CC4)C3)c(F)cc3c(=O)c(C(=O)O)cn1c23 [Example 5, (3S)-3-acetoxymethyl-10-[(3S)-3-cyclopropylaminomethyl-1-pyrrolidinyl]-9-fluoro-2,3-dihydro-7-oxo-7H-pyrido[1,2,3-d,e][1,4]benzoxazine-6-carboxylic acid]",0.125,0.25,4000 µg/mL,0.25,0.25
"O=C(O)c1cn2c3c(c(N4CC[C@@H](CNC5CC5)C4)c(F)cc3c1=O)OC[C@@H]2CO [Example 6, (3S)-10-[(3S)-3-cyclopropylaminomethyl-1-pyrrolidinyl]-9-fluoro-2,3-dihydro-3-hydroxymethyl-7-oxo-7H-pyrido[1,2,3-d,e][1,4]benzoxazine-6-carboxylic acid]",0.125,0.25,4000 µg/mL,0.25,0.25
"C=C1COc2c(N3CC[C@@H](CNC4CC4)C3)c(F)cc3c(=O)c(C(=O)O)cn1c23 [Example 7, 10-[(3S)-3-cyclopropylaminomethyl-1-pyrrolidinyl]-9-fluoro-2,3-dihydro-3-methylene-7-oxo-7H-pyrido[1,2,3-d,e][1,4]benzoxazine-6-carboxylic acid]",0.016,0.125,63 µg/mL,≦0.008 mg/mL,≦0.008 mg/mL
"C[C@H]1COc2c(N3C[C@H](NC4CC4)[C@@H](F)C3)c(F)cc3c(=O)c(C(=O)O)cn1c23 [Example 21, (3S)-10-[(3S,4S)-3-cyclopropylamino-4-fluoro-1-pyrrolidinyl]-9-fluoro-2,3-dihydro-3-methyl-7-oxo-7H-pyrido[1,2,3-d.e][1,4]benzoxazine-6-carboxylic acid]",0.016,0.063,31 µg/mL,0.016,0.016

# Now from value to compound:
MIC (S. pneumoniae Type III),MIC (E. faecalis IID682),MIC [1],MIC (S. aureus Smith),MIC [2],Structure (SMILES)
0.032,0.063,63 µg/mL,0.016,0.016,"C[C@@H]1CN(c2c(F)cc3c(=O)c(C(=O)O)cn4c3c2OC[C@@H]4CF)C[C@H]1CNC1CC1 (relative stereo) [Example 16, (3R)-10-(trans-3-cyclopropylaminomethyl-4-methyl-1-pyrrolidinyl)-9-fluoro-3-fluoromethyl-2,3-dihydro-7-oxo-7H-pyrido[1,2,3-d,e][1,4]benzoxazine-6-carboxylic acid]"
0.125,0.25,250 µg/mL,0.031,0.016,"O=C(O)c1cn2c3c(c(N4CC[C@H](CNC5CC5)C4)c(F)cc3c1=O)OC[C@@H]2CF [Example 2, (3R)-10-[(3R)-3-cyclopropylaminomethyl-1-pyrrolidinyl]-9-fluoro-3-fluoromethyl-2,3-dihydro-7-oxo-7H-pyrido[1,2,3-d,e][1,4]benzoxazine-6-carboxylic acid]"
0.016,0.063,31 µg/mL,0.008,0.008,"C[C@H]1CN(c2c(F)cc3c(=O)c(C(=O)O)cn4c3c2OC[C@@H]4C)C[C@@H]1CNC1CC1 [Example 11, (3S)-10-[(3S,4R)-3-cyclopropylaminomethyl-4-methyl-1-pyrrolidinyl]-9-fluoro-2,3-dihydro-3-methyl-7-oxo-7H-pyrido[1,2,3-d,e][1,4]benzoxazine-6-carboxylic acid]"
0.063,0.25,63 µg/mL,0.016,0.016,"C[C@@H]1CN(c2c(F)cc3c(=O)c(C(=O)O)cn4c3c2OC[C@@H]4C)C[C@H]1CNC1CC1 [Example 12, (3S)-10-[(3R,4S)-3-cyclopropylaminomethyl-4-methyl-1-pyrrolidinyl]-9-fluoro-2,3-dihydro-3-methyl-7-oxo-7H-pyrido[1,2,3-d,e][1,4]benzoxazine-6-carboxylic acid]"
≦0.008 mg/mL,0.063,31 µg/mL,0.008,0.008,"C[C@@H]1CN(c2c(F)cc3c(=O)c(C(=O)O)cn4c3c2OC[C@@H]4C)C[C@@H]1CNC1CC1 [Example 14, (3S)-10-[(3S,4S)-3-cyclopropylaminomethyl-4-methyl-1-pyrrolidinyl]-9-fluoro-2,3-dihydro-3-methyl-7-oxo-7H-pyrido[1,2,3-d,e][1,4]benzoxazine-6-carboxylic acid]"
0.063,0.125,63 µg/mL,0.031,0.031,"C[C@H]1CN(c2c(F)cc3c(=O)c(C(=O)O)cn4c3c2OC[C@@H]4C)C[C@H]1CNC1CC1 [Example 15, (3S)-10-[(3R,4R)-3-cyclopropylaminomethyl-4-methyl-1-pyrrolidinyl]-9-fluoro-2,3-dihydro-3-methyl-7-oxo-7H-pyrido[1,2,3-d,e][1,4]benzoxazine-6-carboxylic acid]"
0.016,0.063,63 µg/mL,0.008,0.008,"C[C@H]1CN(c2c(F)cc3c(=O)c(C(=O)O)cn4c3c2OC[C@@H]4CF)C[C@@H]1CNC1CC1 [Example 17, (3R)-10-[(3S,4R)-3-cyclopropylaminomethyl-4-methyl-1-pyrrolidinyl]-9-fluoro-3-fluoromethyl-2,3-dihydro-7-oxo-7H-pyrido[1,2,3-d,e][1,4]benzoxazine-6-carboxylic acid]"
0.016,0.063,63 µg/mL,0.008,0.016,"C[C@@H]1CN(c2c(F)cc3c(=O)c(C(=O)O)cn4c3c2OC[C@@H]4CF)C[C@@H]1CNC1CC1 [Example 18, (3R)-10-[(3S,4S)-3-cyclopropylaminomethyl-4-methyl-1-pyrrolidinyl]-9-fluoro-3-fluoromethyl-2,3-dihydro-7-oxo-7H-pyrido[1,2,3-d,e][1,4]benzoxazine-6-carboxylic acid]"
0.016,0.063,63 µg/mL,0.008,0.016,"O=C(O)c1cn2c3c(c(N4C[C@H](CNC5CC5)[C@H](F)C4)c(F)cc3c1=O)OC[C@@H]2CF [Example 20, (3R)-10-[(3S,4S)-3-cyclopropylaminomethyl-4-fluoro-1-pyrrolidinyl]-9-fluoro-3-fluoromethyl-2,3-dihydro-7-oxo-7H-pyrido[1,2,3-d.e][1,4]benzoxazine-6-carboxylic acid]"

# Source: patent publication US7153851B2, “10-(3-cyclopropylaminomethyl-1-pyrrolidinyl)pyridobenzoxazinecarboxylic acid derivative effective against resistant bacterium” (Kyorin Pharmaceutical Co., Ltd., priority 2002, dated 2006)
